From patent US5866583A, “Substituted 2,4-diaminopyrimidines” (Hoffmann-La Roche Inc., priority 1996, dated 1999)

Experiments:
[1] = target: purified DHFR of the multiresistant strain S. aureus 157/4696 (Staphylococcus aureus, UniProt P13955); assay: Inhibition of purified DHFR of multiresistant strain S. aureus 157/4696; assay type: biochemical
Source text: (§1) The inhibition of this enzyme was taken as a measurement of the antibacterial activity.

[2] = target: T1, purified DHFR of the opportunistic pathogen P. carinii (Pneumocystis carinii, UniProt P16184); assay: biochemical; conditions: IC50 determined by means of a graph
T1 sequence (P16184 1-206): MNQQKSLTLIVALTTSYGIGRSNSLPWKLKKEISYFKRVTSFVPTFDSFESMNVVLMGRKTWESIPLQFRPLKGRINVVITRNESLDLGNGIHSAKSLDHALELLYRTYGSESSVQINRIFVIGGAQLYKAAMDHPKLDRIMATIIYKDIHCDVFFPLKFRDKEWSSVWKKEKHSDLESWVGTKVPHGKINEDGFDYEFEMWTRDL
Source text: as §1

[3] = target: purified DHFR of the reference strain S. aureus ATCC 25923 (Staphylococcus aureus, UniProt P0A017); assay: Inhibition of purified DHFR of reference strain S. aureus ATCC 25923; assay type: biochemical
Source text: as §1

Row | SMILES | IC50 [1] | IC50 [2] | IC50 [3]
1 | COc1cc(Cc2cnc(N)nc2N)cc(/C=C/C(=O)N2CCc3ccccc3C2c2ccccn2)c1OC (racemic) [Example 3, (E)-(RS)-3-[5-(2,4-Diamino-pyrimidin-5-ylmethyl)-2,3-dimethoxy-phenyl]-1-(1-pyridin-2-yl-3,4-dihydro-1H-isoquinolin-2-yl)-propenone] | 9.5 nM | 17000 nM | 9 nM
2 | COc1ccc2c(c1)C(c1ccccn1)N(C(=O)/C=C/c1cc(Cc3cnc(N)nc3N)cc(OC)c1OC)CC2 (racemic) [Example 8, (E)-(RS)-3-[5-(2,4-Diamino-pyrimidin-5-ylmethyl)-2,3-dimethoxy-phenyl]-1-(7-methoxy-1-pyridin-2-yl-3,4-dihydro-1H-isoquinolin-2-yl)-propenone] | 9 nM | 5000 nM | 5 nM
3 | COc1cc(Cc2cnc(N)nc2N)cc(/C=C/C(=O)N2CCc3ccccc3C2c2ccc(C)cc2)c1OC (racemic) [Example 16, (E)-(RS)-3-[5-(2,4-Diamino-pyrimidin-5-ylmethyl)-2,3-dimethoxy-phenyl]-1-[1-(4-methyl-phenyl)-3,4-dihydro-1H-isoquinolin-2-yl]-propenone] | 4.8 nM | 330 nM | 0.2 nM
4 | COc1cc(Cc2cnc(N)nc2N)cc(/C=C/C(=O)N2CCc3ccccc3C2c2ccc(O)cc2)c1OC (racemic) [Example 21, (E)-(RS)-3-[5-(2,4-Diamino-pyrimidin-5-ylmethyl)-2,3-dimethoxy-phenyl]-1-[1-(4-hydroxy-phenyl)-3,4-dihydro-1H-isoquinolin-2-yl]-propenone] | 13 nM | 380 nM | 5.5 nM
5 | COc1cc(Cc2cnc(N)nc2N)cc(/C=C/C(=O)N2CCc3ccccc3C2c2ccc(C#N)cc2)c1OC (racemic) [Example 23] | 0.9 nM | 10000 nM | 0.5 nM
6 | COc1cc(Cc2cnc(N)nc2N)cc(/C=C/C(=O)N2CCc3ccccc3C2c2cccs2)c1OC (racemic) [Example 27, (E)-(RS)-3-[5-(2,4-Diamino-pyrimidin-5-ylmethyl)-2,3-dimethoxy-phenyl]-1-(1-thiophen-2-yl-3,4-dihydro-1H-isoquinolin-2-yl)-propenone] | 1.8 nM | 3800 nM | 1.6 nM
7 | COc1cc(Cc2cnc(N)nc2N)cc(/C=C/C(=O)N2CCc3ccccc3C2c2ccc(C)nc2)c1OC (racemic) [Example 32, (E)-(RS)-3-[5-(2,4-Diamino-pyrimidin-5-ylmethyl)-2,3-dimethoxy-phenyl]-1-[1-(6-methyl-pyridin-3-yl)-3,4-dihydro-1H-isoquinolin-2-yl]-propenone] | 1.3 nM | 10000 nM | 1.8 nM
8 | COc1cc(Cc2cnc(N)nc2N)cc(/C=C/C(=O)N2CCc3ccccc3C2c2ccc(Cl)cn2)c1OC (racemic) [Example 34, (E)-(RS)-1-[1-(5-Chloro-pyridin-2-yl)-3,4-dihydro-1H-isoquinolin-2-yl]-3-[5-(2,4-diamino-pyrimidin-5-ylmethyl)-2,3-dimethoxy-phenyl]-propenone] | 1.7 nM | 10000 nM | 2.4 nM
9 | COc1cc(Cc2cnc(N)nc2N)cc(/C=C/C(=O)N2CCc3ccccc3C2c2ccc(Cl)nc2)c1OC (racemic) [Example 36, (E)-(RS)-1-[1-(6-Chloro-pyridin-3-yl)-3,4-dihydro-1H-isoquinolin-2-yl]-3-[5-(2,4-diamino-pyrimidin-5-ylmethyl)-2,3-dimethoxy-phenyl]-propenone] | 3 nM | 6200 nM | 0.8 nM
10 | COc1cc(Cc2cnc(N)nc2N)cc(/C=C/C(=O)N2CCc3ccccc3C2c2ccc(C(N)=O)nc2)c1OC (racemic) [Example 39, (E)-(R,S)-5-[2-[3-[5-(2,4-Diamino-pyrimidin-5-ylmethyl)-2,3-dimethoxy-phenyl]-acryloyl]-1,2,3,4-tetrahydro-isoquinolin-1-yl]-pyridine-2-carboxamide] | 1.8 nM | 30000 nM | 1.2 nM
11 | COc1cc(Cc2cnc(N)nc2N)cc(/C=C/C(=O)N2CCc3ccccc3C2c2ccc(S(C)(=O)=O)cc2)c1OC (racemic) [Example 40, (E)-(R,S)-3-[5-(2,4-Diamino-pyrimidin-5-ylmethyl)-2,3-dimethoxy-phenyl]-1-[1-(4-methanesulphonyl-phenyl)-3,4-dihydro-1H-isoquinolin-2-yl]-propenone] | 1.2 nM | 550 nM | 0.7 nM
12 | COc1cc(Cc2cnc(N)nc2N)cc(/C=C/C(=O)N2CCc3ccccc3[C@@H]2c2ccccn2)c1OC [Example 1, (E)-(R)-3-[5-(2,4-diamino-pyrimidin-5-ylmethyl)-2,3-dimethoxy-phenyl]-1-(1-pyridin-2-yl-3,4-dihydro-1H-isoquinolin-2-yl)-propenone] | 8 nM | 8000 nM | 5 nM
